According to patent US11607383B2, “Conductive polymer microneedle arrays for electronically-controlled drug release” (University of Washington, priority 2019, dated 2023):

Tests used:
[1] = test system: BV2 murine microglia; format: cell-based; conditions: subdural solution, DC experiment, 3 days incubation
Procedure: Bioactivity of electrically released drug was tested in an in vitro neuroinflammation model, in which drugs were released into wells of activated BV2 murine microglia. Healthy BV2 cells were seeded in 12-well plates at a density of 100,000 cells/well, in 1.6 mL of Dulbecco's modified eagle media (DMEM, Gibco) with 4.5 g/L D-glucose, 584 mg/L L-glutamine, and 110 mg/L sodium pyruvate (Invitrogen). The DMEM was supplemented with 5% fetal bovine serum (Invitrogen) and 2% anti-mycotic/anti-biotic (Invitrogen). Following seeding, the cells were incubated at 37° C. overnight to allow for settling and adhesion. Cells in activated treatment groups were activated by the replacement of media with fresh DMEM containing 0.005% interferon gamma (Ifn-γ, Invitrogen) and 1% lipopolysaccharide (LPS, ThermoFisher). Unactivated controls received normal fresh DMEM. Cells were then incubated for 1 hour before application of treatment in groups of n=6, in order to simulate realistic conditions in which there is a duration between traumatic SCI occurrence and access to treatment. […]
Cell viability was measured using an MTS assay (CellTiter 96® AQueous One Solution Cell Proliferation Assay, Promega). […] The incubation was followed by detection of absorbance at 490 nm. The MTS absorbance in each group was normalized to the absorbance of the unactivated group.

[2] = test system: activated BV2 murine microglia; assay: In vitro neuroinflammation assay (NO by Griess, cytokines by Luminex); format: cell-based; conditions: for NO release normalized to viable cells: DC experiment
Procedure: Bioactivity of electrically released drug was tested in an in vitro neuroinflammation model, in which drugs were released into wells of activated BV2 murine microglia. Healthy BV2 cells were seeded in 12-well plates at a density of 100,000 cells/well, in 1.6 mL of Dulbecco's modified eagle media (DMEM, Gibco) with 4.5 g/L D-glucose, 584 mg/L L-glutamine, and 110 mg/L sodium pyruvate (Invitrogen). The DMEM was supplemented with 5% fetal bovine serum (Invitrogen) and 2% anti-mycotic/anti-biotic (Invitrogen). Following seeding, the cells were incubated at 37° C. overnight to allow for settling and adhesion. Cells in activated treatment groups were activated by the replacement of media with fresh DMEM containing 0.005% interferon gamma (Ifn-γ, Invitrogen) and 1% lipopolysaccharide (LPS, ThermoFisher). Unactivated controls received normal fresh DMEM. Cells were then incubated for 1 hour before application of treatment in groups of n=6, in order to simulate realistic conditions in which there is a duration between traumatic SCI occurrence and access to treatment.
Treatment was applied transdurally from microneedles into the cell media though the transdural insert model as previously described in the In Vitro Transdural Release section. Diagrams of experimental conditions can be found in FIGS. 5A-5G. Microneedles were similarly applied manually, then underwent a potentiostatic or cyclic electrical stimulation. Direct current potential was applied for only 2 minutes to minimize electrical imbalance applied to the cells, while delivering sufficient drug to achieve therapeutic effect. Cyclic voltammetry was applied for 15 cycles, equating to 10 minutes. Epidural drug solution controls were similarly applied to the neuroinflammation model by pipetting over the transdural insert. In addition, a subdural solution control was introduced to the neuroinflammation studies in which the Dexa solution is applied directly to the cell media, bypassing the transdural insert.
Following 3 days of incubation, cell media was assayed for markers of inflammation. Free radical nitric oxide (NO) was quantified using a Griess reagent kit (Invitrogen) that detects NO reduced to nitrites in cell medias. Colorimetric NO quantification was performed following the protocols provided in the Griess reagent kit. Pro-inflammatory cytokines were quantified using a Luminex Magpix Multiplexing assay (Millipore). Cytokines quantified include interleukin-1-beta (IL-1β), interleukin-6 (IL-6), and tumor necrosis factor alpha (TNF-α). Cells treated in the CV stimulated experiment were additionally quantified for the release of monocyte chemoattractant protein 1 (MCP-1). The Luminex multiplexing assays were performed following the protocol provided in the kit.

[3] = epidural solution, CV experiment

C[C@@H]1C[C@H]2[C@@H]3CCC4=CC(=O)C=C[C@]4(C)[C@@]3(F)[C@@H](O)C[C@]2(C)[C@@]1(O)C(=O)COP(=O)(O)O [Dexa solution, dexamethasone phosphate]
relative cell viability (MTS) [1]: slight decreases in viability, though not significant
MCP-1 release normalized for viable cells [2, 3]: did not see the same decrease
NO release normalized for viable cells [2, 3]: did not see similar reductions in NO release
NO release normalized to viable cells ([2]; epidural solution): did not demonstrate the same decrease
NO release normalized to viable cells ([2]; subdural solution): significant decrease
